Experimental data taken from patent US20110015119A1, “NOVEL SEMI-SYNTHETIC GLYCOPEPTIDES AS ANTIBACTERIAL AGENTS” (LEAD THERAPEUTICS, INC., priority 2009, published 2011).
≈ marks a conversion by molar mass, not a printed value. Where two headings read alike, the source gives them in different places.

Tests used:
Assay type in all cases: cell-based
[1] = tested on: Staphylococcus aureus 100 (ATCC 29213); assay: MIC by broth microdilution, SA 100
Procedure: (§1) Antibacterial activity in vitro is investigated by broth microdilution method in Meuller-Hinton broth as recommended by NCCLS. All strains tested are clinical isolates either sensitive or resistant to natural glycopeptides. MIC values were determined using the CLSI-recommended broth microdilution procedure (Clinical and Laboratory Standards Institute, Methods for Dilution Antimicrobial Susceptibility Tests for Bacteria That Grow Aerobically; Approved Standard-Seventh Edition.). Automated liquid handlers (Multidrop 384, Labsystems, Helsinki, Finland; Biomek 2000 and Multimek 96, Beckman Coulter, Fullerton Calif.) were used to conduct serial dilutions and liquid transfers. The MIC value for vancomycin is given for comparison. The abbreviations for organisms tested are as follow: SA 100—Staphylococcus aureus 100 (ATCC 29213); SA 757—Staphylococcus aureus 757 (MRSA); SA 2012—Staphylococcus aureus 2012 (VISA); SE 835—Staphylococcus epidermidis 835; SE 831—Staphylococcus epidermidis 831 (MRSE); EFc 101—Enterococcus faecalis 101 (ATCC 29212); EFc 848—Enterococcus faecalis 848 (VRE, Van A); EFcm 800—Enterococcus faecium 800; EFcm 752—Enterococcus faecium 752 (VRE, Van A); SPNE 1195—Streptococcus pneumoniae 1195 (ATCC 49619); SPY 712—Streptococcus pyogenes 712.

[2] = tested on: Staphylococcus epidermidis 835; assay: MIC by broth microdilution, SE 835
Procedure: as §1

[3] = tested on: Streptococcus pneumoniae 1195 (ATCC 49619); assay: MIC by broth microdilution, SPNE 1195
Procedure: as §1

[4] = tested on: Enterococcus faecium 752 (VRE, Van A); assay: MIC by broth microdilution, EFcm 752; details: class symbols
Procedure: as §1

Enterococcus faecium 800 = assay: MIC by broth microdilution, EFcm 800
Procedure: as §1

[5] = tested on: Staphylococcus aureus 2012 (VISA); assay: MIC by broth microdilution, SA 2012; details: class symbols
Procedure: as §1

[6] = tested on: Streptococcus pyogenes 712; assay: MIC by broth microdilution, SPY 712
Procedure: as §1

[7] = tested on: Staphylococcus epidermidis 831 (MRSE); assay: MIC by broth microdilution, SE 831; details: read-out: MIC SE 831
Procedure: as §1

[8] = tested on: Enterococcus faecalis 848 (VRE, Van A); assay: MIC by broth microdilution, EFc 848; details: class symbols
Procedure: as §1

[9] = tested on: Enterococcus faecalis 101 (ATCC 29212); assay: MIC by broth microdilution, EFc 101; details: class symbols
Procedure: as §1

[10] = tested on: Staphylococcus aureus 757 (MRSA); assay: MIC by broth microdilution, SA 757; details: read-out: MIC SA 757
Procedure: as §1

[11] = Staphylococcus aureus, ATCC29213, read-out: MIC SA 100
[12] = Staphylococcus epidermidis, 835, read-out: MIC SE 835
[13] = Streptococcus pneumoniae, ATCC49619, read-out: MIC S PNE 1195
[14] = Enterococcus faecium, VRE, read-out: MIC E FCM 752, Enterococcus faecium 752 (VRE, Van A)
[15] = Enterococcus faecium, 800, read-out: MIC E FCM 800
[16] = Staphylococcus aureus, VISA, read-out: MIC SA 2012, Staphylococcus aureus 2012 (VISA)
[17] = Streptococcus pyogenes, 712, read-out: MIC S PYO 712
[18] = Staphylococcus epidermidis, MRSE
[19] = Enterococcus faecalis, VRE, read-out: MIC E FC 848, Enterococcus faecalis 848 (VRE, Van A)
[20] = Enterococcus faecalis, ATCC29212, read-out: MIC E FC 101, Enterococcus faecalis 101 (ATCC 29212)

SMILES	MIC [1, 11] [µg/mL]	MIC [2, 12] [µg/mL]	MIC [3, 13] [µg/mL]	MIC [4, 14] [µg/mL]	MIC (Enterococcus faecium 800; [15]) [µg/mL]	MIC [5, 16] [µg/mL]	MIC [6, 17] [µg/mL]	MIC [7, 18] [µg/mL]	MIC [8, 19] [µg/mL]	MIC [9, 20] [µg/mL]	MIC ([10]; Staphylococcus aureus, MRSA) [µg/mL]	also measured
CCCCCCCCNC(=O)Oc1cc(O)c2c(c1)[C@@H](C(=O)NC1C3CC4CC(C3)CC1C4)NC(=O)[C@H]1NC(=O)[C@H](NC(=O)[C@@H]3NC(=O)[C@H](CC(N)=O)NC(=O)[C@H](NC(=O)[C@@H](CC(C)C)NC)[C@H](O)c4ccc(c(Cl)c4)Oc4cc3cc(c4OC3OC(CO)C(O)C(O)C3OC3CC(C)(N)C(O)C(C)O3)Oc3ccc(cc3Cl)[C@H]1O)c1ccc(O)c-2c1 (stereo partly shown) [Compound 33]	0.01 to 0.5 (≈ 0.00575 to 0.288 µM)	0.01 to 0.5 (≈ 0.00575 to 0.288 µM)	0.01 to 0.5 (≈ 0.00575 to 0.288 µM)	0.5 to 1 (≈ 0.288 to 0.575 µM)	0.01 to 0.5 (≈ 0.00575 to 0.288 µM)	0.5 to 1 (≈ 0.288 to 0.575 µM)	0.01 to 0.5 (≈ 0.00575 to 0.288 µM)	0.01 to 0.5 (≈ 0.00575 to 0.288 µM)	2 to 4 (≈ 1.15 to 2.3 µM)	0.01 to 0.5 (≈ 0.00575 to 0.288 µM)	0.01 to 0.5 (≈ 0.00575 to 0.288 µM)	
CCCCCCc1ccc(S(=O)(=O)NCCCCCCNCc2c(O)cc3c(c2O)-c2cc(ccc2O)[C@H]2NC(=O)[C@@H]4NC(=O)[C@H](CC(N)=O)NC(=O)[C@H](NC(=O)[C@@H](CC(C)C)NC)[C@H](O)c5ccc(c(Cl)c5)Oc5cc4cc(c5O[C@@H]4O[C@H](CO)[C@@H](O)[C@H](O)[C@H]4O[C@H]4C[C@](C)(NC(=O)CN)[C@H](O)[C@H](C)O4)Oc4ccc(cc4Cl)[C@@H](O)[C@H](NC2=O)C(=O)N[C@@H]3C(=O)O)cc1 (atropisomer, axis not shown) [Compound 362]												MIC ([1]; ATCC29213, Staphylococcus aureus 100 (ATCC 29213), class symbols, read-out: MIC SA 100): 0.01 to 0.5 µg/mL (≈ 0.00538 to 0.269 µM); MIC ([2]; Staphylococcus epidermidis 835, class symbols, read-out: MIC SE 835): 0.01 to 0.5 µg/mL (≈ 0.00538 to 0.269 µM); MIC ([3]; ATCC49619, Streptococcus pneumoniae 1195 (ATCC 49619), class symbols, read-out: MIC S PNE 1195): 0.01 to 0.5 µg/mL (≈ 0.00538 to 0.269 µM); MIC ([4]; Enterococcus faecium 752 (VRE, Van A), read-out: MIC E FCM 752): 2 to 4 µg/mL (≈ 1.08 to 2.15 µM); MIC (Enterococcus faecium 800; Enterococcus faecium 800, class symbols, read-out: MIC E FCM 800): 0.01 to 0.5 µg/mL (≈ 0.00538 to 0.269 µM); MIC ([5]; Staphylococcus aureus 2012 (VISA), read-out: MIC SA 2012): 0.01 to 0.5 µg/mL (≈ 0.00538 to 0.269 µM); MIC ([6]; Streptococcus pyogenes 712, class symbols, read-out: MIC S PYO 712): 0.01 to 0.5 µg/mL (≈ 0.00538 to 0.269 µM); MIC ([7]; Staphylococcus epidermidis 831 (MRSE), class symbols): 0.01 to 0.5 µg/mL (≈ 0.00538 to 0.269 µM); MIC ([8]; Enterococcus faecalis 848 (VRE, Van A), read-out: MIC E FC 848): 8 to 16 µg/mL (≈ 4.3 to 8.61 µM); MIC ([9]; ATCC29212, Enterococcus faecalis 101 (ATCC 29212), read-out: MIC E FC 101): 0.01 to 0.5 µg/mL (≈ 0.00538 to 0.269 µM); MIC ([10]; Staphylococcus aureus 757 (MRSA), class symbols): 0.01 to 0.5 µg/mL (≈ 0.00538 to 0.269 µM)
CCCCCCc1ccc(NC(=O)Oc2cc(O)c3c(c2)[C@@H](C(=O)NC2C4CC5CC(C4)CC2C5)NC(=O)[C@H]2NC(=O)[C@H](NC(=O)[C@@H]4NC(=O)[C@H](CC(N)=O)NC(=O)[C@H](NC(=O)[C@@H](CC(C)C)NC)[C@H](O)c5ccc(c(Cl)c5)Oc5cc4cc(c5O[C@@H]4O[C@H](CO)[C@@H](O)[C@H](O)[C@H]4O[C@H]4C[C@](C)(N)[C@H](O)[C@H](C)O4)Oc4ccc(cc4Cl)[C@H]2O)c2ccc(O)c-3c2)cc1 (stereo partly shown) [Compound 332]	1 to 2 (≈ 0.56 to 1.12 µM)	1 to 2 (≈ 0.56 to 1.12 µM)	0.01 to 0.5 (≈ 0.0056 to 0.28 µM)	8 to 16 (≈ 4.48 to 8.96 µM)	0.5 to 1 (≈ 0.28 to 0.56 µM)	4 to 8 (≈ 2.24 to 4.48 µM)	0.01 to 0.5 (≈ 0.0056 to 0.28 µM)	0.5 to 1 (≈ 0.28 to 0.56 µM)	> 16	1 to 2 (≈ 0.56 to 1.12 µM)	1 to 2 (≈ 0.56 to 1.12 µM)	
CCCCCCOc1ccc(S(=O)(=O)NCCCCCCNC(=O)Oc2cc(O)c3c(c2)[C@@H](C(=O)O)NC(=O)[C@H]2NC(=O)[C@H](NC(=O)[C@@H]4NC(=O)[C@H](CC(N)=O)NC(=O)[C@H](NC(=O)[C@@H](CC(C)C)NC)[C@H](O)c5ccc(c(Cl)c5)Oc5cc4cc(c5O[C@@H]4O[C@H](CO)[C@@H](O)[C@H](O)[C@H]4O[C@H]4C[C@](C)(N)[C@H](O)[C@H](C)O4)Oc4ccc(cc4Cl)[C@H]2O)c2ccc(O)c-3c2)cc1 (atropisomer, axis not shown) [Compound 349]	0.01 to 0.5 (≈ 0.00546 to 0.273 µM)	0.01 to 0.5 (≈ 0.00546 to 0.273 µM)	0.01 to 0.5 (≈ 0.00546 to 0.273 µM)	0.5 to 1 (≈ 0.273 to 0.546 µM)	0.01 to 0.5 (≈ 0.00546 to 0.273 µM)	0.5 to 1 (≈ 0.273 to 0.546 µM)	0.01 to 0.5 (≈ 0.00546 to 0.273 µM)	0.01 to 0.5 (≈ 0.00546 to 0.273 µM)	4 to 8 (≈ 2.18 to 4.37 µM)	0.01 to 0.5 (≈ 0.00546 to 0.273 µM)	0.01 to 0.5 (≈ 0.00546 to 0.273 µM)	
CNCCCOc1ccc(NC(=O)Oc2cc(O)c3c(c2)[C@@H](C(=O)NC2C4CC5CC(C4)CC2C5)NC(=O)[C@H]2NC(=O)[C@H](NC(=O)[C@@H]4NC(=O)[C@H](CC(N)=O)NC(=O)[C@H](NC(=O)[C@@H](CC(C)C)NC)[C@H](O)c5ccc(c(Cl)c5)Oc5cc4cc(c5O[C@@H]4O[C@H](CO)[C@@H](O)[C@H](O)[C@H]4O[C@H]4C[C@](C)(N)[C@H](O)[C@H](C)O4)Oc4ccc(cc4Cl)[C@H]2O)c2ccc(O)c-3c2)cc1 (stereo partly shown) [Compound 333]	4 to 8 (≈ 2.24 to 4.47 µM)	8 to 16 (≈ 4.47 to 8.94 µM)	2 to 4 (≈ 1.12 to 2.24 µM)	> 16	2 to 4 (≈ 1.12 to 2.24 µM)	> 16	1 to 2 (≈ 0.559 to 1.12 µM)	8 to 16 (≈ 4.47 to 8.94 µM)	> 16	4 to 8 (≈ 2.24 to 4.47 µM)	4 to 8 (≈ 2.24 to 4.47 µM)	
